This note sets out measurements from PubChem BioAssay (NCI).

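Briefly, cells in 96-well plates were exposed to five compound concentrations for 48 h, and endpoints were estimated by linear interpolation. GI50 is the concentration that inhibits growth by half. TGI is the concentration that stops growth completely.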

Holding throughout (experiment): inhibition of tumour cell growth, NCI panel, 48 h
Test [1] deals with RXF 393 renal.
In test [2] the test system is KM12 colon.
Test [3] has as its system HT29 colon.
For test [4], the system named is OVCAR-3 ovarian.
In test [5] the test system is EKVX NSCLC.
Test [6] deals with SK-MEL-28 melanoma.
Test [7] deals with SNB-75 CNS.
In test [8] the test system is MALME-3M melanoma.
Test [9] has as its system MDA-MB-435.
The test system of test [10] is DU-145 prostate.

With `COc1cc2c(c(OC)c1OC)-c1ccc(SC)c(=O)cc1[C@@H](NC(=O)c1ccc(OC(C)=O)cc1)CC2`, the TGI in test [1] was 0.0813 µM; in [2], 0.0407 µM; in [3] it was 0.0653 µM; in test [4], 0.034 µM; in test [5], greater than 100 µM; in test [6] it was 60 µM. Also, in [6], the GI50 was 15 µM.

Consider `S=c1[nH]c(=S)c2sc(=S)n(-c3ccccc3)c2[nH]1`, for which the TGI in test [7], in test [1], in [2], in test [3], in [4] and in test [5] was greater than 100 µM in each case. In addition, the TGI in [8] and in [6] was greater than 100 µM each time.

With `COc1ccc2c([nH]c3cc(O)c(C)cc32)c1C=O`, the TGI in test [1], in test [2], in test [3], in test [4], in [8] and in [6] was greater than 25 µM each time.

In the case of `COC(=O)/C=C(C)/C=C/c1cc(C(C)=O)c(C)o1`, the TGI in test [7], in test [2], in test [3], in [4], in [5] and in [8] was greater than 100 µM throughout.

Turning to `N#Cc1ccccc1NC(=O)/C(=N\NC(=O)c1ccncc1)C(c1cnc2ccc([N+](=O)[O-])cc2n1)[N+](=O)[O-]` (configuration not stated), the TGI in test [7], in test [1], in test [2], in [3], in test [4] and in test [5] was greater than 100 µM each time. In addition, the TGI in test [9], in test [8] and in test [6] was greater than 100 µM each time.

As to `CCCCCCCCCCC(C)CCCCCCC(=O)OCC(COP(=O)([O-])OCC[N+](C)(C)C)OC(=O)CCCCCCC(C)CCCCCCCCCC` (configuration not stated), the TGI in [7], in test [1], in test [2], in test [3], in [4] and in test [5] was greater than 100 µM throughout. Further, the TGI in test [8] and in test [6] was greater than 100 µM each time.

Regarding `CCOC(=O)/C(=C\c1ccc(OCc2ccccc2)c(OC)c1)C(=O)c1ccccc1`, the TGI in test [2] is 41.2 µM; in test [4], 58.1 µM; in [5], 66.2 µM; in [8] it was 32.3 µM; in test [6], 30.4 µM.

Consider `C[C@@H]1O[C@@H](O[C@@H]2[C@@H](O)[C@H](OCCc3ccc(O)c(O)c3)O[C@H](COC(=O)/C=C/c3ccc(O)c(O)c3)[C@H]2O)[C@H](O)[C@H](O)[C@H]1O`, for which the GI50 in [7] is greater than 100 µM; in [10], 32.6 µM; in test [2], greater than 100 µM; in test [4] it was 13 µM; in test [5], 36.3 µM; in test [9], 19.9 µM. In addition, the GI50 in [6] is greater than 100 µM. The TGI in test [7] was greater than 100 µM; in [10], greater than 100 µM; in test [2], greater than 100 µM; in test [4] it was greater than 100 µM; in [5], greater than 100 µM; in test [9], 40.1 µM. The same compound displayed a TGI in test [6] greater than 100 µM.

`Cc1nc2c(=O)[nH]c(=O)n(C)c2[nH]c1=O`: the TGI in test [7], in test [1], in test [2], in test [3], in test [4] and in test [5] was greater than 100 µM throughout. Besides, the TGI in test [8] and in test [6] was greater than 100 µM throughout.

Turning to `COC(=O)NC/C=C\c1nc(CC/C=C\C(=O)OC2CC3CC(=O)O[C@H](/C=C/CC(C)C)C[C@H]4CCC(C)C(C[C@H](OC)CC(C2)O3)O4)co1` (some centres not stated), the GI50 in test [7] is 32.5 µM; in [10] it was 1.54 µM; in test [2], 4.25 µM; in test [3], 0.742 µM; in test [5] it was less than 0.01 µM; in test [8], 17.1 µM. The GI50 in test [6] is 12.1 µM. The TGI was greater than 100 µM in test [7]; greater than 100 µM in [10]; greater than 100 µM in test [2]; greater than 100 µM in test [3]; 4.8 µM in test [5]; 45.1 µM in [8]. Further, in test [6], the TGI was greater than 100 µM.

In the case of `CC(=O)NC1=C(Nc2ccc(C)cc2)C(=O)c2ccccc2C1=O`, the TGI in test [7] is 22.6 µM; in [1], greater than 75 µM; in test [2], greater than 75 µM; in [3], 31.9 µM; in [4], 45.7 µM; in test [5] it was greater than 75 µM. Moreover, the TGI was 22.8 µM in test [8] and 39.1 µM in test [6].

In the case of `c1nc2cscc2c2cscc12`, the TGI in [1], in test [2], in test [3], in test [4], in test [8] and in test [6] was greater than 100 µM each time.

With `CC1Cc2c(N)nc(NN)nc2NC1=O` (configuration not stated), the TGI in test [7], in test [1], in test [2], in test [3], in test [4] and in [5] was greater than 100 µM throughout. Moreover, the TGI in [8] and in [6] was greater than 100 µM each time.

Consider `C=CC[C@H]1C[C@@]2(C)OC[C@H](C(C)C)N2C1=O`, for which the TGI in [7], in test [1], in test [2], in test [3], in [4] and in [5] was greater than 100 µM in each case. In addition, the TGI in [8] and in [6] was greater than 100 µM throughout.

Regarding `Cc1cccc(C)c1NC(=O)CCCC(=O)CC(=O)/C=C/c1ccccc1`, the TGI in test [7], in [1], in [2], in test [3], in test [4] and in test [8] was greater than 100 µM throughout. The TGI in test [6] is greater than 100 µM.
